Earlier results as cited in PMC2650103 (Journal of medicinal chemistry, 2008).

Test system: cowpox, vaccinia or ectromelia virus
Details: mouse, in vivo, po; cited from earlier work

Compound: O=C(NN1C(=O)C2C3C=CC(C4CC34)C2C1=O)c1ccc(C(F)(F)F)cc1 (stereo not shown) [Compound 30, 4-trifluoromethyl-N-(3,3a,4,4a,5,5a,6,6a-octahydro-1,3-dioxo-4,6-ethenocycloprop[f]isoindol-2(1H)-yl)-benzamide]
- Protection against viral spread in mice: effective in protecting against viral spread
